Data set [1] can be described thus: Average score of NAC and NAL depletion and prediction of skin allergenicity, UV method. The note with it: for Average score: test substance solution 1 mmol/L. On the procedure:
(§1) The average value (Average Score) of NAC and NAL depletion percents is calculated. In the resultant value, the second decimal place is rounded off.
(§2) Average value (Average Score) of NAC and NAL depletion percents=(NAC depletion percent+NAL depletion percent)/2
(§3) The depletion percent of at least one of NAC or NAL or the average score of the depletion percents of NAC and NAL is calculated, and whether or not the test substances are “allergenic substances” or “non-allergenic substances” is determined:
(§4) (1) in a case of performing evaluation based on the average value of the depletion percent of NAC and the depletion percent of NAL,
(§5) In the following Tables, S represents as being an allergenic substance and NS represents as being a non-allergenic substance.

Data set [2] is described as follows: NAL depletion percent, HPLC-fluorescence detection. On the procedure:
(§6) 1) To a 50 mL vessel, 12.6 mg (±0.1 mg) of NAL is weighed; to this, a 25 mL measuring pipet is used to add 20 mL of 100 mmol/L phosphate buffer (pH: 10.2); and the content is gently stirred using a test tube mixture to achieve dissolution (2 mmol/L NAL solution). 2) To a 500 mL vessel, 149.5 mL of this buffer is added using a 50 mL measuring pipet; to this, 0.5 mL of the above-described 2 mmol/L NAL solution is added; and the content is mixed by inversion to achieve 300-fold dilution (6.667 μmol/L).
(§7) The test substance undiluted solution is defined as an “undiluted solution”, and used. Incidentally, this “undiluted solution” may be appropriately diluted to, for example, 1/10, 1/100, or 1/1000, using an appropriate solvent, and the resultant solution may be used.
(§8) Subsequently, the solution having the maximum dissolution concentration is defined as an “undiluted solution”, and tested. Incidentally, this “undiluted solution” may be appropriately diluted to, for example, 1/10, 1/100, or 1/1000, using an appropriate solvent, and the resultant solution may be used.
(§9) The test substance is prepared at 1 mmol/L in any of solvents that are water, acetonitrile, acetone, and a 5 mass % dimethyl sulfoxide (DMSO)/acetonitrile solution and used as a test substance solution. As the solvent, a solvent in which the test substance dissolves at 1 mmol/L is used; when the test substance is soluble in a plurality of solvents, the solvent is selected in the following order of decreasing precedence: water, acetonitrile, acetone, and 5 mass % DMSO/acetonitrile.
(§10) Test substance solutions are prepared on a 96-well plate (U96 PP-0.5 ML NATURAL, Thermo Fisher Scientific Inc. (NUNC)) mainly using a 12-channel pipette, and a reagent is added in accordance with the following formula.
(§11) Nucleophilic reagent (NAC and NAL): 150 μL
(§12) Test substance solution: 50 μL
(§13) The plate is tightly sealed using a plate sealing (Resistant embossed seal, SHIMADZU GLC Ltd.), and stirred using a plate shaker (Titramax 100, Heidolph Instruments GmbH & CO. KG). The plate is subjected to spinning down using a centrifuge, and then to incubation at 25° C., for 24 hours, in a light-shielded state.
(§14) After the incubation for 24 hours, the plate sealing is removed; to each sample, 50 µL of the reaction stopping solution is added to stop the reaction.
(§15) The HPLC measurement conditions for the nucleophilic reagents are as follows.
(§16) From the average values (each, n=3) of peak areas of the post-reaction unreacted NAC or NAL and the blank-test (after performing the reaction step without addition of the test substances) NAC or NAL, the following formula is used to calculate the depletion percent of NAC or NAL.
(§17) NAL depletion percent (% depletion)=[1−(Average value of peak areas of post-reaction unreacted NAL/Average value of peak areas of blank-test (after performing the reaction step without addition of the test substances) NAL)]×100
(§18) The average value of peak areas of post-reaction unreacted NAL is the average value of areas obtained by measuring three times post-reaction unreacted NAL. The average value of peak areas of blank-test (after performing the reaction step without addition of the test substances) NAL is the average value of areas obtained by measuring three times blank-test (after performing the reaction step without addition of the test substances) NAL.
(§19) The reactions were each performed on a 96-well plate, and the number of samples of each case was set to n=3. In addition, as controls, reaction solutions including the solvent alone were prepared. The reaction solutions were prepared so as to have a NAC or NAL concentration of 5 μmon. To the reaction solutions after the lapse of 24 hours, a trifluoroacetic acid (TFA) aqueous solution was added such that the final concentration became 0.5% (v/v) TFA. Subsequently, HPLC was performed for measurements by two detection methods that were light absorption detection using a photodiode array (PDA) detector, and fluorescence detection using a fluorescence detector.

Data set [3] in a line: NAC depletion percent, HPLC-UV detection (281 nm). The note with it: Reference (UV method). Here is the method: (§20) 1) To a 50 mL vessel, 11.6 mg (±0.1 mg) of NAC is weighed; to this, a 25 mL measuring pipet is used to add 20 mL of 100 mmol/L phosphate buffer (pH: 8.0); and the content is gently stirred using a test tube mixer to achieve dissolution (2 mmol/L). 2) To a 500 mL vessel, 149.5 mL of this buffer is added using a 50 mL measuring pipet; to this, 0.5 mL of the above-described 2 mmol/L NAC solution is added; and the content is mixed by inversion to achieve 300-fold dilution (6.667 μmon).
as §7, §8, §9, §10, §11, §12, §13, §14, §15, §16
(§21) NAC depletion percent (% depletion)=[1−(Average value of peak areas of post-reaction unreacted NAC/Average value of peak areas of blank-test (after performing the reaction step without addition of the test substances) NAC)]×100
(§22) The average value of peak areas of the post-reaction unreacted NAC is the average value of areas obtained by measuring three times post-reaction unreacted NAC. The average value of peak areas of blank-test (after performing the reaction step without addition of the test substances) NAC is the average value of areas obtained by measuring three times blank-test (after performing the reaction step without addition of the test substances) NAC.
as §19

Data set [4] in a line: NAL depletion percent, HPLC-UV detection (281 nm). The note with it: Reference (UV method). On the procedure:
as §6, §7, §8, §9, §10, §11, §12, §13, §14, §15, §16, §17, §18, §19

Data set [5] can be described thus: Average score of NAC and NAL depletion and prediction of skin allergenicity, fluorescence method. Conditions: for Average score: test substance solution 1 mmol/L. Here is the method:
as §1, §2, §3, §4, §5

Data set [6] in a line: NAC depletion percent, HPLC-fluorescence detection. On the procedure:
as §20, §7, §8, §9, §10, §11, §12, §13, §14, §15, §16, §21, §22, §19

Setting [7] is: Reference (UV method), skin allergenicity prediction.
The mark [8] stands for this setting: Fluorescence method, non-allergenic substance.
[9] abbreviates: Fluorescence method, skin allergenicity prediction.
Where [10] appears, read: single substance, Reference (UV method).
Setting [11] is: single substance, test substance solution 1 mmol/L, fluorescence method.
[12] abbreviates: single substance, test substance solution 1 mmol/L.
Where [13] appears, read: single substance, fluorescence method.
Setting [14] is: single substance, Reference (UV method), criterion average score […].
[15] abbreviates: single substance, fluorescence method, criterion average score […].

As to `CCCCBr` [1-Bromobutane], the Prediction result in data set [1] (setting [7]) and in data set [5] (setting [9]) was “NS (NS represents as being a non-allergenic substance)” in each case. The “NAL depletion (%)” value is 0.0% in data set [2] (setting [8]) and 2.4% in data set [4] (non-allergenic substance). In addition, the “NAC depletion (%)” value in data set [3] (non-allergenic substance) came to 0.1%; in data set [6] (setting [8]) it was 0.0%.
As to `CC(=O)C(C)=O` [2,3-Butanedione], the Average score in data set [1] (setting [10]) is listed as 33.4%; in data set [5] (setting [13]) it was 31.4%. The “NAL depletion (%)” value in data set [2] (setting [11]) is 17.7%; in data set [4] (setting [12]), 25.5%. The “NAC depletion (%)” value in data set [3] (setting [12]) worked out at 41.2%; in data set [6] (setting [11]), 45.2%.
As to `O=[N+]([O-])c1ccc(Cl)c([N+](=O)[O-])c1` [2,4-Dinitrochlorobenzene], the Prediction result in data set [1] (setting [14]) and in data set [5] (setting [15]) was “S (S represents as being an allergenic substance)” in each case. Moreover, the Average score in data set [1] (setting [10]) is listed as 47.7%; in data set [5] (setting [13]), 45.8%. For the same compound, the “NAL depletion (%)” value is listed as 0.0% in data set [2] (setting [11]) and 6.1% in data set [4] (setting [12]). For the same compound, the figures for the “NAC depletion (%)” value in data set [3] (setting [12]) and in data set [6] (setting [11]) were 89.3% and 91.6%, respectively.
As to `CC(=O)C1CCCCC1=O` (stereo not drawn) [2-Acetylcyclohexanone], the Prediction result in data set [1] (setting [7]) and in data set [5] (setting [9]) was “NS (NS represents as being a non-allergenic substance)” in each case. The “NAL depletion (%)” value was 0.0% in data set [2] (setting [8]) and 0.3% in data set [4] (non-allergenic substance). The “NAC depletion (%)” value turned out to be 1.3% in data set [3] (non-allergenic substance) and 3.5% in data set [6] (setting [8]).
Consider `C=C(C)C(=O)OCC(C)O` (stereo not drawn) [2-Hydroxypropyl methacrylate], for which the Prediction result in data set [1] (setting [7]) and in data set [5] (setting [9]) was “NS (NS represents as being a non-allergenic substance)” throughout. The results for the “NAL depletion (%)” value in data set [2] (setting [8]) and in data set [4] (non-allergenic substance) were 0.2% and 2.2%, respectively. The “NAC depletion (%)” value in data set [3] (non-allergenic substance) was found to be 2.4%; in data set [6] (setting [8]) it was 2.0%.
On to `O=C(O)c1ccc(O)cc1` [4-Hydroxybenzoic acid], for which the Prediction result in data set [1] (setting [7]) and in data set [5] (setting [9]) was “NS (NS represents as being a non-allergenic substance)” throughout. For the same compound, the figures for the “NAL depletion (%)” value in data set [2] (setting [8]) and in data set [4] (non-allergenic substance) were 0.1% and −1.4%, respectively. In addition, the “NAC depletion (%)” value in data set [3] (non-allergenic substance) is recorded as 0.0%; in data set [6] (setting [8]), 2.9%.
As for `COc1ccc(C(C)=O)cc1` [4′-Methoxyacetophenone], the Prediction result in data set [1] (setting [7]) and in data set [5] (setting [9]) was “NS (NS represents as being a non-allergenic substance)” throughout. Further, the “NAL depletion (%)” value in data set [2] (setting [8]) is 0.0%; in data set [4] (non-allergenic substance) it was 3.3%. The “NAC depletion (%)” value in data set [3] (non-allergenic substance) is listed as 3.3%; in data set [6] (setting [8]), 1.2%.
`CC(=O)C(=O)CC(C)C` [5-Methyl-2,3-hexanedione]: the Prediction result in data set [1] (setting [14]) and in data set [5] (setting [15]) was “S (S represents as being an allergenic substance)” in each case. The values for the Average score in data set [1] (setting [10]) and in data set [5] (setting [13]) were 20.6% and 20.4%, respectively. The “NAL depletion (%)” value in data set [2] (setting [11]) is reported as 26.1%; in data set [4] (setting [12]), 34.8%. Further, the “NAC depletion (%)” value in data set [3] (setting [12]) came out at 6.4%; in data set [6] (setting [11]), 14.8%.
On to `Cc1ccc2oc(=O)ccc2c1` [6-Methylcoumarin], for which the Prediction result in data set [1] (setting [7]) and in data set [5] (setting [9]) was “NS (NS represents as being a non-allergenic substance)” throughout. The “NAL depletion (%)” value in data set [2] (setting [8]) was determined as 0.1%; in data set [4] (non-allergenic substance), 1.0%. Moreover, the “NAC depletion (%)” value in data set [3] (non-allergenic substance) came out at 0.0%; in data set [6] (setting [8]), 1.3%.
With `O=C(OCc1ccccc1)c1ccccc1` [Benzyl benzoate], the Average score in data set [1] (setting [10]) is listed as 1.4%; in data set [5] (setting [13]), 0.1%. Also, the “NAL depletion (%)” value in data set [2] (setting [11]) is recorded as 0.3%; in data set [4] (setting [12]), 2.8%. For the same compound, the “NAC depletion (%)” value in data set [3] (setting [12]) and in data set [6] (setting [11]) was 0.0% in each case.
With `O=c1ccc2ccccc2o1` [Coumarin], the Prediction result in data set [1] (setting [7]) and in data set [5] (setting [9]) was “NS (NS represents as being a non-allergenic substance)” throughout. In addition, the “NAL depletion (%)” value in data set [2] (setting [8]) turned out to be 0.4%; in data set [4] (non-allergenic substance), 3.9%. Further, the “NAC depletion (%)” value in data set [3] (non-allergenic substance) is listed as 0.5%; in data set [6] (setting [8]), 1.2%.
In the case of `CCOC(=O)c1ccccc1C(=O)OCC` [Diethyl phthalate], the Prediction result in data set [1] (setting [7]) and in data set [5] (setting [9]) was “NS (NS represents as being a non-allergenic substance)” throughout. For the same compound, the entries for the “NAL depletion (%)” value in data set [2] (setting [8]) and in data set [4] (non-allergenic substance) were 0.2% and 1.7%, respectively. Also, the “NAC depletion (%)” value in data set [3] (non-allergenic substance) and in data set [6] (setting [8]) was 0.0% in each case.
With `CC(C)=CCCC(C)=CCCC(C)=CC=O` [Farnesal], the Prediction result in data set [1] and in data set [5] was “S (key: S represents as being an allergenic substance; NS represents as being a non-allergenic substance)” throughout. Further, the Average score is reported as 13.0% in data set [1] (setting [10]) and 13.6% in data set [5] (setting [13]). In addition, the “NAL depletion (%)” value in data set [2] (setting [11]) came out at 4.9%; in data set [4] (setting [12]) it was 8.8%. The figures for the “NAC depletion (%)” value in data set [3] (setting [12]) and in data set [6] (setting [11]) were 17.2% and 22.4%, respectively.

These data come from US20210181109A1 (FUJIFILM Corporation, priority 2018, published 2021).
